Laboratory results reported in ChEMBL document CHEMBL3045152, “Synthesis and antiviral activity of new 4-(phenylamino)/4-[(methylpyridin-2-yl)amino]-1-phenyl-1H-pyrazolo[3,4-b]pyridine-4-carboxylic acids derivatives” (Med Chem Res, 2007).

What was measured:
Human alphaherpesvirus 1 [1] = assay: Antiviral activity against Human herpesvirus 1 at 50 uM by end point titration assay; type: functional
Human alphaherpesvirus 1 [2] = assay: Antiviral activity against Human herpesvirus 1 infected in Vero cells after 72 hr by plaque reduction assay; type: functional, organism-based; conditions: Human alphaherpesvirus 1, Vero
[3] = Selectivity index, ratio of CC50 for african green monkey Vero cells to EC50 for Herpes simplex virus 1; type: toxicity, cell-based; conditions: read-out: Ratio CC50/EC50
[4] = Cytotoxicity against Chlorocebus aethiops (African green monkey) Vero cells after 72 hr by MTT assay; type: cell-based; conditions: chlorocebus sabaeus
[5] = tested on: Vesicular stomatitis virus; assay: Antiviral activity against Vesicular stomatitis virus infected Vero cells after 72 hr by plaque reduction assay; type: functional, organism-based
Mayaro virus = assay: Antiviral activity against Mayaro virus infected in Vero cells after 72 hr by plaque reduction assay; type: functional, organism-based
[6] = Selectivity index, ratio of CC50 for african green monkey Vero cells to EC50 for Mayaro virus; type: toxicity, cell-based; conditions: read-out: Ratio CC50/EC50
[7] = Selectivity index, ratio of CC50 for african green monkey Vero cells to EC50 for Vesicular stomatitis virus; type: toxicity, cell-based; conditions: read-out: Ratio CC50/EC50
Human alphaherpesvirus 1 [8] = assay: Antiviral activity against Human herpesvirus 1 at 10 uM by end point titration assay; type: functional

| SMILES | inhibition at 50 µM (Human alphaherpesvirus 1 [1]) [%] | also measured |
| --- | --- | --- |
| CCOC(=O)c1cnc2c(cnn2-c2ccccc2)c1Nc1cc(C)ccn1 | 60 |  |
| CCOC(=O)c1cnc2c(cnn2-c2ccccc2)c1Nc1ccc(C)cn1 | 90 |  |
| CCOC(=O)c1cnc2c(cnn2-c2ccccc2)c1Nc1cccc(C)n1 | 90 |  |
| Cc1ccnc(Nc2c(C(=O)O)cnc3c2cnn3-c2ccccc2)c1 | 75 |  |
| Cc1ccc(Nc2c(C(=O)O)cnc3c2cnn3-c2ccccc2)nc1 | 60 |  |
| Cc1cccc(Nc2c(C(=O)O)cnc3c2cnn3-c2ccccc2)n1 | 21 |  |
| CCOC(=O)c1cnc2c(cnn2-c2ccccc2)c1Nc1ccc(Cl)cc1 | 92 |  |
| CCOC(=O)c1cnc2c(cnn2-c2ccccc2)c1Nc1cccc(OC)c1 | 98 |  |
| CCOC(=O)c1cnc2c(cnn2-c2ccccc2)c1Nc1ccc(OC)cc1 | 75.5 |  |
| CCOC(=O)c1cnc2c(cnn2-c2ccccc2)c1Nc1cccc(F)c1 | 0 |  |
| CCOC(=O)c1cnc2c(cnn2-c2ccccc2)c1Nc1ccccc1 | 90 |  |
| CCOC(=O)c1cnc2c(cnn2-c2ccccc2)c1Nc1ccc(C)cc1 | 69.2 |  |
| CCOC(=O)c1cnc2c(cnn2-c2ccccc2)c1Nc1cccc(Cl)c1 | 60 |  |
| CCOC(=O)c1cnc2c(cnn2-c2ccccc2)c1Nc1cccc([N+](=O)[O-])c1 | 90 | EC50 (Human alphaherpesvirus 1 [2]): 6.8 µM; selectivity ratio [3]: 141; CC50 at 72 h [4]: 1000 µM |
| CCOC(=O)c1cnc2c(cnn2-c2ccccc2)c1Nc1ccc([N+](=O)[O-])cc1 | 0 |  |
| CCOC(=O)c1cnc2c(cnn2-c2ccccc2)c1Nc1cccc(Br)c1 | 70 |  |

| SMILES | inhibition at 50 µM (Human alphaherpesvirus 1 [1]) [%] | also measured |
| --- | --- | --- |
| CCOC(=O)c1cnc2c(cnn2-c2ccccc2)c1Nc1ccc(Br)cc1 | 75 |  |
| CCOC(=O)c1cnc2c(cnn2-c2ccccc2)c1Nc1cccc(C)c1 | 90 |  |
| COc1ccc(Nc2c(C(=O)O)cnc3c2cnn3-c2ccccc2)cc1 | 80.6 |  |
| O=C(O)c1cnc2c(cnn2-c2ccccc2)c1Nc1ccc(Cl)cc1 | 68 |  |
| O=C(O)c1cnc2c(cnn2-c2ccccc2)c1Nc1ccc(Br)cc1 | 37 |  |
| O=C(O)c1cnc2c(cnn2-c2ccccc2)c1Nc1ccc([N+](=O)[O-])cc1 | 80 |  |
| COc1cccc(Nc2c(C(=O)O)cnc3c2cnn3-c2ccccc2)c1 | 75.5 |  |
| O=C(O)c1cnc2c(cnn2-c2ccccc2)c1Nc1ccccc1 | 0 | EC50 [5]: 2.5 µM; EC50 (Mayaro virus): 4.8 µM; selectivity ratio [6]: 28; selectivity ratio [7]: 54; CC50 at 72 h [4]: 135 µM |
| O=C(O)c1cnc2c(cnn2-c2ccccc2)c1Nc1cccc(Br)c1 | 84 | EC50 (Human alphaherpesvirus 1 [2]): 2.2 µM; selectivity ratio [3]: 272; CC50 at 72 h [4]: 600 µM |
| Cc1cccc(Nc2c(C(=O)O)cnc3c2cnn3-c2ccccc2)c1 | 38.5 |  |
| O=C(O)c1cnc2c(cnn2-c2ccccc2)c1Nc1cccc([N+](=O)[O-])c1 | 20.6 |  |
| Cc1ccc(Nc2c(C(=O)O)cnc3c2cnn3-c2ccccc2)cc1 | 58.4 |  |
| O=C(O)c1cnc2c(cnn2-c2ccccc2)c1Nc1cccc(Cl)c1 | 68 | EC50 [5]: 1 µM; EC50 (Mayaro virus): 0.52 µM; selectivity ratio [6]: 71; selectivity ratio [7]: 37; CC50 at 72 h [4]: 37.4 µM |
| O=C(O)c1cnc2c(cnn2-c2ccccc2)c1Nc1cccc(F)c1 | 68 |  |
| Nc1nc2c(ncn2COCCO)c(=O)[nH]1 [ACYCLOVIR] |  | inhibition at 10 µM (Human alphaherpesvirus 1 [8]): 96%; selectivity ratio [6]: 880; selectivity ratio [3]: 880; CC50 at 72 h [4]: 960 µM |
